# How the values were obtained:
# [1] = purified/de-ionized water, room temperature, agitated one minute, gravimetric
# Method: (§1) 2.00 mL of purified/de-ionized water (for instance water for chromatography) was added to the solid using an adjustable volumetric pipette. The mixture was vigorously agitated at room temperature for one minute. […] The solution was filtered by centrifugal filtration and 1.50 mL of the aqueous solution was transferred into a tared glass vial (about 10 mL volume). The water was evaporated in an air dryer at 40° C. for about 15 hours, then at 50° C. for about eight hours, subsequently drying was completed at 50° C. under vacuum (10 to 20 mbar) for about 13 hours. The solubility was determined by gravimetric evaluation of the solid residue.
# as §1, with “The suspension” for “The solution”
# [2] = Water content (TG-FTIR); format: physicochemical
# Method: Thermogravimetric measurements were carried out with a Netzsch Thermo-Microbalance TG 209 coupled to a Bruker FTIR Spectrometer Vector 22 (sample pans with a pinhole, N2 atmosphere, heating rate 10 K/min).
# About 420 mg of the solid material obtained in Example 2 was weighed into a filter centrifuge device and 2.0 mL of water is added followed by centrifugation under ambient conditions. This wash step is repeated twice more using 0.5 mL of water. The wet filter cake is then transferred to a fritted glass filter and air dried by drawing ambient air (about 22° C./about 21% r.h.) through the glass filter for about 10 minutes.
# (§2) DVS measurements were performed as follows: The sample was placed on an aluminum holder on top of a microbalance and allowed to equilibrate at 50% RH before starting the pre-defined humidity program: • (1) two hours kept at 50% constant relative humidity (RH) then • (2) reduced to 0% RH at a rate of 5% per hour • (3) maintained RH at 0% for five hours • (4) raised RH to 75% at a rate of 5% per hour • (5) maintained RH at 75% for five hours • (6) reduced to 0% RH at a rate of 5% per hour • (7) maintained RH at 0% for five hours • (8) raised RH to 75% at a rate of 5% per hour • (9) reduced to 50% RH at a rate of 5% per hour • (10) maintained RH at 50% for about one hour
# [3] = Hygroscopicity by dynamic water vapor sorption analysis (DVS); format: physicochemical; details: 0 to 75% r.h.
# Method: DVS measurements are typically performed with an SPS11-100n “Sorptions Prüfsystem” from ProUmid (formerly “Projekt Messtechnik”), August-Nagel-Str. 23, 89079 Ulm (Germany).
# as §2
# The results are illustrated in FIG. 2.
# [4] = cited from earlier work; for aqueous solubility: room temperature
molecule,measurement,setting,value
5-methyl-(6S)-tetrahydrofolic acid calcium salt,kinetic solubility,[1],9.0 mg of 5-methyl-(6S)-tetrahydrofolic acid per mL
same,water content,[2]; method not stated,12.4%
same,change of water content within tested relative humidity range,[3],about 7.4%
CCOC(=O)[C@@H](N)CC(C)C.CN1c2c([nH]c(N)nc2=O)NC[C@@H]1CNc1ccc(C(=O)N[C@@H](CCC(=O)O)C(=O)O)cc1 [5-methyl-(6S)-tetrahydrofolic acid L-leucine ethyl ester 1:1 salt],water content,[2]; TG-FTIR analysis,about 0.7%
CN1c2c(nc(N)[nH]c2=O)NC[C@@H]1CNc1ccc(C(=O)N[C@@H](CCC(=O)O)C(=O)O)cc1 [5-methyl-(6S)-tetrahydrofolic acid],solubility in water,[4]; water,poorly soluble in water
"CN1c2c([nH]c(N)nc2=O)NC[C@@H]1CNc1ccc(C(=O)N[C@@H](CCC(=O)[O-])C(=O)[O-])cc1.[Ca+2] [Form I, calcium salt of 5-methyl-(6S)-tetrahydrofolic acid]",aqueous solubility,[4],about 10 mg/ml
"CN1c2c([nH]c(N)nc2=O)NC[C@@H]1CNc1ccc(C(=O)N[C@@H](CCC(=O)[O-])C(=O)[O-])cc1.[Ca+2] [calcium salt (Form III), calcium salt of 5-methyl-(6S)-tetrahydrofolic acid]",aqueous solubility,[4],about 2.5 mg/ml

# Source: patent US11925644B2, “Crystalline salts of 5-methyl-(6S)-tetrahydrofolic acid and l-leucine ethyl ester” (MERCK PATENT GMBH, priority 2018, dated 2024)
